# Source: patent US20130156753A1 (UNIVERSITY OF ROCHESTER, priority 2010, published 2013)
# Tests used:
# [1] = system: MEF2 transcriptional activity; test: 3xMEF2-luciferase reporter assay in NRVMs; type: cell-based, rat; settings: PE 24 hours
# Procedure: The mRNA was extracted from the cell lysates and then RT-PCR with the primers for ANF, β-MHC, α-SMA, and GADPH (internal control) was performed. *, p<0.05 versus PE+Ad-GFP; #, p<0.05 versus PE+GFP-HDAC5-WT, n=4.
# To assess MEF2 and CREB transcriptional activation, an adenovirus was used that encoded a 3×MEF2-dependent reporter gene in which three tandem repeats of MEF2 sites were located upstream of the thymidine kinase gene promoter and plasmid encoding CREB-dependent reporter gene. NRVMs or Cos7 cells cultured in 24-well were co-transfected with 3×MEF2 or CREB luciferase reporter gene and adenovirus encoding LacZ or GFP-HDAC5-WT, GFP-HDAC5-S280A mutant and GFP-HDAC5-S280D mutant. […] The luciferase activities in cell lysates were determined using the Dual-Luciferase Reporter Assay kit (Promega) and Wallac 1420 multi-label counter (PerkinElmer) as described previously (4, 5).
# HDAC5 nuclear export = test: PE-induced HDAC5 nuclear export in neonatal rat ventricular cardiomyocytes (NRVMs); type: cell-based
# Procedure: A, B, Cos7 cells were co-transfected with expression vectors encoding GFP-tagged HDAC5 (GFP-HDAC5) and constitutively active protein kinases as indicated, and then exposed to phorbol-12-myristate-13-acetate (PMA, […]) for 3 hours. […] A-F, The cells were fixed and the subcellular localization of GFP-HDAC5 was visualized by fluorescence microscopy.
# The cells were fixed and GFP-HDAC5 localization was analyzed by fluorescence microscopy. α-actinin was detected by immunofluorescence using an antibody against α-actinin and a fluorescein-conjugated secondary antibody. The nuclei were stained with DAPI.
# The cells were fixed and GFP-HDAC5 localization was analyzed by fluorescence microscopy. α-actinin was detected by immunofluorescence using an antibody against α-actinin and a fluorescein-conjugated secondary antibody. The nuclei were stained with DAPI. B, PKA expression in cell lysates were determined by Western blot using PKA antibody.
# The cells were fixed and endogenous HDAC5 localization was analyzed by fluorescence microscopy. HDAC5 and α-actinin was detected by immunocytochemistry with antibody against HDAC5 and α-actinin.
# The cells were fixed and GFP-HDAC5 subcellular localization was analyzed by fluorescence microscopy and stained with an α-actinin antibody and DAPI.
# Cos7 cells were grown in Dulbecco's Modified Eagle's Medium (DMEM) supplemented with fetal bovine serum (10%), 1-glutamine and penicillin/streptomycin. Primary cultures of neonatal rat cardiac ventricular myocytes (NRVMs) from 1- to 2-day-old Sprague-Dawley rats (Charles River Laboratories) were prepared. In brief, NRVMs were dispersed from the ventricles by digestion with collagenase type II (Worthington). Cells were cultured in Dulbecco's modified Eagle's medium (DMEM) supplemented with 1,000 mg/L D-glucose, L-glutamine, and 110 mg/L sodium pyruvate (GIBCO), fetal bovine serum (10%), and penicillin/streptomycin at 37° C. in a 5% CO2 humidified atmosphere for 2-3 days. For inducer or inhibitor studies, cells were pretreated with various inducers or inhibitors for 30 min in serum-free medium. Primary cultures of adult rat cardiomyocytes were prepared from 200-250g male Sprague-Dawley rats. Briefly, rats were anesthetized, hearts excised and placed in Krebs buffer and perfused and digested with endotoxin-free collagenase II (Worthington). This protocol typically yielded approximately 4×10^6 cells per heart, with ˜85% surviving, rod-shaped Ca2+-tolerant cells. Myocytes were allowed to attach to 20 μg/ml laminin coated plates in Modified Eagle Medium (MEM) containing 2.5% FBS, 25 mmol/L HEPES, 5 mmol/L taurine, 2 mmol/L carnitine, 2 mmol/L creatinine, 100 IU/ml penicillin, and 100 μg/ml streptomycin for 2 hrs before replacing with serum-free MEM containing 25 mmol/L HEPES, 5 mmol/L taurine, 2 mmol/L carnitine, 2 mmol/L creatinine, 100 IU/ml penicillin, and 100 μg/ml streptomycin.
# Adenoviruses encoding Flag-tagged HDAC5 wild-type (WT), GFP-tagged HDAC5-WT, and YFP-tagged HDAC7-WT were generated as described previously (Ha C H, et al. (2008) Protein Kinase D-dependent Phosphorylation and Nuclear Export of Histone Deacetylase 5 Mediates Vascular Endothelial Growth Factor-induced Gene Expression and Angiogenesis. J Biol Chem 283(21):14590-14599; Ha C H et al. (2008) VEGF stimulates HDAC7 phosphorylation and cytoplasmic accumulation modulating matrix metalloproteinase expression and angiogenesis. Arterioscler Thromb Vasc Biol 28(10):1782-1788). Adenovirus expressing GFP-tagged HDAC5-S280A mutant, GFP-tagged HDAC5-S280D mutant and Flag-tagged HDAC5-S280A mutant were generated by using ViraPower Adenoviral Expression System (Invitrogen) according to the manufacturer's protocol. Adenovirus containing β-galactosidase (LacZ) or GFP was used as a control. […]
smiles,measurement,setting,value
"CCCC(=O)Nc1ncnc2c1ncn2[C@@H]1O[C@@H]2COP(=O)(O)O[C@H]2[C@H]1OC(=O)CCC [cAMP, Dibutyryl-cAMP]",decrease in MEF2 transcriptional activation with HDAC5-S280A,[1]; NRVMs co-infected with adenoviral GFP-HDAC5-S280A,abolished the decrease in MEF2 transcriptional activation by cAMP
same,PE-stimulated MEF2 transcriptional activity,"[1]; NRVMs with GFP alone or GFP-HDAC5-WT, 30 min pretreatment",significantly inhibited PE-stimulated MEF2 transcriptional activity
same,HDAC5 translocation from nucleus to cytoplasm after PE,"HDAC5 nuclear export; NRVMs with GFP-HDAC5-WT, cAMP 30 min, PE 24 hours",prevented from translocating from the nucleus to the cytoplasm
same,PE-induced nuclear export of GFP-HDAC5 S280A,"HDAC5 nuclear export; NRVMs, S280A mutant, cAMP 500 μM or forskolin 10 μM 30 min, PE 3 hours",resistant to PKA inhibition
same,PE-stimulated HDAC5 nuclear export,"HDAC5 nuclear export; NRVMs, adenoviral GFP-HDAC5, 30 min pretreatment, PE 10 μM 3 hours",markedly inhibited PE-stimulated HDAC5 nuclear export
same,PE-induced endogenous HDAC5 nuclear export,"HDAC5 nuclear export; NRVMs, endogenous HDAC5, cAMP 500 μM 30 min, PE 10 μM 3 hours",same inhibitory effect
